{"source": "patent US20220096516A1", "about": "“OLIGONUCLEOTIDE MOLECULE AND APPLICATION THEREOF IN TUMOR THERAPY” (Ractigen Therapeutics, priority 2019, published 2022)", "key": {"Hep3B cells": {"tested_on": "Hep3B cells", "assay": "Cell viability by CCK-8 method, Hep3B", "type": "cell-based, human", "conditions": "10 nM, 72 h, FIG. 6B", "procedure": "(§1) 8 LHPP promoter-targeting saRNAs were individually transfected into liver cancer cells at 10 nM for 72 h. In FIG. 6A, the expression level of LHPP mRNA was analyzed by RT-qPCR. In FIG. 6B, cell viability in the saRNA treatment group was evaluated by the CCK-8 method and recorded as a percentage relative to the viability of cells in a control (Mock) treatment group.\n(§2) The cell viability was detected by the following CCK-8 method: the cCells were plated into a 96-well plate at 3-5×10^3 cells/well, cultured overnight, and transfected with the oligonucleotide duplexes. After 72 hour of transfection, 10 uL of CCK-8 solution (Dojindo Molecular Technologies) was added into each well. After 1 hour of incubation at 37° C., a microplate reader was used to measure absorbances at 450 nm. […]"}, "Li-7 cells": {"tested_on": "Li-7 cells", "assay": "Cell viability by CCK-8 method, Li-7", "type": "cell-based, human", "conditions": "Li-7, 10 nM, 72 h, FIG. 6B", "procedure": "as §1, §2"}, "[1]": {"tested_on": "bladder cancer cell line T24", "assay": "Cell viability by CCK-8 method, T24", "type": "cell-based, human", "conditions": "T24, 10 nM, 72 h, FIG. 7B", "procedure": "as §1, with “into” for “into liver”, “7A,” for “6A,”, “7B,” for “6B,”\nThe cell viability was detected by the following CCK-8 method: the cCells were plated into a 96-well plate at 3-5×10^3 cells/well, cultured overnight, and transfected with the oligonucleotide duplexes. After 72 hour of transfection, 10 uL of CCK-8 solution (Dojindo Molecular Technologies) was added into each well. After 1 hour of incubation at 37° C., a microplate reader was used to measure absorbances at 450 nm.\nIn order to further evaluate the effect of LHPP saRNAs in inducing the mRNA expression of the LHPP gene and inhibiting the proliferation of cancer cells, eight screened saRNAs (RAG7-132, RAG7-133, RAG7-139, RAG7-177, RAG7-178, RAG7-694, RAG7-707 and RAG7-892) each were transfected into the liver cancer cell lines Huh7 (Medical Cell Resource Center, Tohoku University, Japan), HepG2 (ATCC), Hep3B (ATCC), Li-7 (Medical Cell Resource Center, Tohoku University, Japan) and SK-HEP-1 (ATCC), a lung cancer cell line A549 (ATCC), a bladder cancer cell line T24 (ATCC), a prostatic cancer cell line PC3 (ATCC), and a glioma cell line U87MG (ATCC). The mRNA expression and cell viability of the transfected cells were measured."}, "HepG2 transplanted tumor": {"tested_on": "HepG2 transplanted tumor", "assay": "HepG2 transplanted tumor growth in nude mice", "set-up": "species or system BALB/c nude mice", "conditions": "HepG2 xenograft, day 13; saRNA (in vivo-jetPEI) 1 mg/kg intratumor days 1, 4, 7, 10; regorafenib 3 mg/kg intragastric daily day 1-12; vehicle 118%", "procedure": "To prepare the saRNA formulation, the in vivo-jetPEI (201-10G, Polyplus-transfection, France) was adopted as an saRNA delivery system. The preparation process is briefly described as follows. An saRNA was first diluted in 10% glucose solution to obtain a solution A. According to the instructions of the manufacturer, a required amount of in vivo-jetPEI was diluted in 10% glucose solution to obtain a solution B. Equal volumes of the solution A and the solution B were mixed (nitrogen-to-phosphorus ratio: 8; final concentration of glucose: 5%). After mixing, the mixture was let to stand at room temperature for 15 minutes for later use.\nHepG2 cells in the logarithmic growth phase were obtained and counted, and then the cell suspension was regulated to 5×10^7 cells/mL and subcutaneously inoculated into the right armpit of BALB/c nude mice at a volume of 0.1 mL per mouse. […] Starting from the initial administration, the long diameter and the short diameter of each tumor were measured with a vernier caliper every two days. The tumor volume was calculated according to the formula V=(l×w^2)/2, wherein 1 represents the longest diameter of the tumor and w represents the diameter parallel to the surface of the tumor and perpendicular to the long diameter. A tumor growth curve and size and morphology of the tumor after anatomy were recorded during the administration."}, "U87MG transplanted tumor": {"tested_on": "U87MG transplanted tumor", "assay": "U87MG transplanted tumor growth in nude mice", "set-up": "species or system BALB/c nude mice", "conditions": "U87MG xenograft, day 13; saRNA (in vivo-jetPEI) 1 mg/kg intratumor days 1, 4, 7, 10; regorafenib 3 mg/kg intragastric daily day 1-12; control 406%", "procedure": "To prepare the saRNA formulation, in vivo-jetPEI (201-10G, Polyplus-transfection, France) was adopted as an saRNA delivery system. The preparation process is briefly described as follows: an saRNA was first diluted in a 10% glucose solution to give a solution A; a required amount of in vivo-jetPEI was diluted in 10% glucose solution to give a solution B; then, equal volumes of the solution A and the solution B were mixed (nitrogen-to-phosphorus ratio: 8; final concentration of glucose: 5%). After mixing the mixture was let to stand under room temperature for 15 minutes for later use.\nThe glioma cell line U87MG were grown to the logarithmic phase, counted, then subcutaneously inoculated at a concentration of 9×10^7 cells/mL into the right armpit of BALB/c nude mice at 0.1 mL per mouse. […] After the initial administration, the long diameter and short diameter of each tumor were measured with a vernier caliper every two days. The tumor volume was calculated according to the formula V=(l×w^2)/2, wherein 1 represents the longest diameter of the tumor and w represents the diameter parallel to the surface of the tumor and perpendicular to the long diameter. A tumor growth curve and size and morphology of the tumor anatomy were recorded during the administration."}}, "note": "d = 2'-deoxy (DNA); r = 2'-OH (RNA)", "data": [{"substance": "RAG7-133: saRNA duplex; sense GCUCUUUGUCCGCUGAUCUTT (SEQ ID NO: 1), antisense AGAUCAGCGGACAAAGAGCTT (SEQ ID NO: 165) (sugars from the 5' end r19 d2, backbone not given here)", "values": [{"measurement": "cell proliferation (cell viability, CCK-8)", "setting": "Hep3B cells", "result": "inhibited cell proliferation"}, {"measurement": "cell proliferation (cell viability, CCK-8)", "setting": "Li-7 cells", "result": "inhibited cell proliferation"}, {"measurement": "cell proliferation (cell viability, CCK-8)", "setting": "[1]", "result": "inhibited cell proliferation"}, {"measurement": "tumor volume increase compared with that at the beginning of treatment", "setting": "HepG2 transplanted tumor", "result": 34, "unit": "%"}, {"measurement": "tumor volume increase compared with that at the beginning of treatment", "setting": "U87MG transplanted tumor", "result": 167, "unit": "%"}]}]}
